# Experimental data taken from patent publication US20260232749A1, “Plant-Based Compositions And Methods For Modulation of Inflammatory Response Post Viral Infection” (VDF Futureceuticals, Inc., priority 2023, published 2026).
# “Also recorded” adds a separate entry of the source.
# How the values were obtained:
# iNOS = iNOS (Homo sapiens, UniProt P35228); experiment: eCMA-iNOS: iNOS-dependent ROS generation in capillary blood (ESR) after single oral dose; format: in vivo; settings: over three hours after single oral dose (50 mg blend or 1,000 mg vitamin C); FIG. 2
# NOX2 = biological target: T1, NOX2 (Homo sapiens, UniProt P04839); experiment: eCMA-PHAGO-NOX2: NOX2-dependent ROS generation in capillary blood (ESR) after single oral dose; format: in vivo; settings: single oral dose (50 mg blend or 1,000 mg vitamin C); subjects 18-24 days after moderate COVID-19; 30-180 min after administration
# T1 sequence (P04839 2-570 limits assumed): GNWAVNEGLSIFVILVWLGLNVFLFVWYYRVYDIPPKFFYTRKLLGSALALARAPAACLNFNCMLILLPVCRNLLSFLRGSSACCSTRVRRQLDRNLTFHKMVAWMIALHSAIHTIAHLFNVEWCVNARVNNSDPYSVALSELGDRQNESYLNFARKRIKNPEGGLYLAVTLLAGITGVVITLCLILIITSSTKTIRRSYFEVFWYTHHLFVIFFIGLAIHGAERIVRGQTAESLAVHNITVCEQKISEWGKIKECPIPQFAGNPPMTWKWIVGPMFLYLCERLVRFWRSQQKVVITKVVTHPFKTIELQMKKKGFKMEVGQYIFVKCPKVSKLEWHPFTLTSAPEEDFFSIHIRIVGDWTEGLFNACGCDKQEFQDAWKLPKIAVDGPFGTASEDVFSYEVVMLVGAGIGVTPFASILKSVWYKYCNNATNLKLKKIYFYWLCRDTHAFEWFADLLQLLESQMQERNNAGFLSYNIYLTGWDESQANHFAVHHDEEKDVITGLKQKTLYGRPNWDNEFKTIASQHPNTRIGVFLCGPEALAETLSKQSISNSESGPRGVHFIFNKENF
# T1 sequence (P13498 2-195 partner limits assumed): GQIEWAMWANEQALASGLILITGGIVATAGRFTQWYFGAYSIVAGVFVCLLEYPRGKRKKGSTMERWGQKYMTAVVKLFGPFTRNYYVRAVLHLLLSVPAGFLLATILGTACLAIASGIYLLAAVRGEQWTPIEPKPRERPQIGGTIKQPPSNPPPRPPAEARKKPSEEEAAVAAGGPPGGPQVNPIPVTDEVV
# [1] = tested on: TNF-α induced H2O2 formation; experiment: inflammatory resistance assay: ex vivo TNF-α induced extracellular H2O2 generation by blood cells; format: in vivo, human; settings: single oral dose 50 mg blend or 1,000 mg vitamin C
smiles,measurement,setting,value
O=C1O[C@H]([C@@H](O)CO)C(O)=C1O [vitamin C],"change in iNOS dependent cellular metabolic activity, in words",iNOS,no notable effect
same,inhibition of NOX2-dependent ROS generation,NOX2,45%
same,"suppression of extracellular H2O2 induced by TNF-α, in words","[1]; TNF-α 40 ng/ml (comparable to acute viral infection), FIG. 5A",similarly suppress
same,"reduction of high dose TNFα-induced H2O2 formation, in words","[1]; TNFα 200 ng/ml (""Cytokine Storm""), FIG. 5B",equal potential to reduce; also recorded: similar
